Measurements as given in PMC9506485, “Synthesis and Structure–Activity Relationships for the Anti-Mycobacterial Activity of 3-Phenyl-N-(Pyridin-2-ylmethyl)Pyrazolo[1,5-a]Pyrimidin-7-Amines” (Pharmaceuticals, 2022).
Converted amounts (≈) assume the structure as drawn.

Experiments:
[1] = Microsomal stability, human liver microsomes; format: in vitro ADME; conditions: pH 7.4; for microsomal CLint at 1 μM: human liver microsomes, read-out: HLM Clint(mic)
Protocol: (§1) Assays were performed by WuXi AppTec (Shanghai) Co., Ltd. The test compounds (Table 4) (at 1 μM) were incubated at 37 °C with liver microsomes from human or CD-1 mice in the presence of a NADPH regenerating system and phosphate buffer (100 mM, pH 7.4) at 0.5 mg/mL microsomal protein (the positive controls were testosterone, propafenone, and diclofenac). Samples were removed at time intervals of 0, 5, 10, 20, 30, and 60 min and immediately mixed with cold CH3CN (containing 0.1 μg/mL of tolbutamide as an internal standard) and then centrifuged prior to analysis by LCMS/MS.

[2] = tested on: VERO green monkey kidney cells; assay: VERO mammalian cell toxicity assay; format: cell-based; conditions: Chlorocebus sabaeus; inhibition of growth of VERO green monkey kidney epithelial cells
hERG = hERG (Homo sapiens, UniProt Q12809); assay: hERG channel blockade, manual patch clamp; format: cell-based; conditions: cloned hERG potassium channels, room temperature; for inhibition at 0.3 µM: read-out: hERG % inhib. at 0.3 µM; for inhibition at 1 µM: read-out: hERG % inhib. at 1.0 µM
Protocol: Selected compounds were evaluated for hERG channel blockade (Table 4) by WuXi AppTec (Shanghai) Co., Ltd. This was carried out using cloned hERG potassium channels according to their standard manual patch clamp method. Two concentrations (0.3 and 1.0 µM) were tested (at room temperature), and at least three replicates were obtained for each. Amitryptyline was used as a standard.

[3] = tested on: Mycobacterium tuberculosis (strain H37Rv); assay: LORA minimum inhibitory concentration assay (low-oxygen/non-replicating); conditions: M.tb H37Rv, 90% inhibition of growth
[4] = Microsomal stability, mouse liver microsomes; format: in vitro ADME; conditions: for CLint scaled at 1 μM / half-life at 1 μM: CD-1, mouse, microsomes, pH 7.4; for microsomal CLint at 1 μM: CD-1, pH 7.4, mouse liver microsomes, read-out: MLM Clint(mic)
Protocol: as §1

[5] = tested on: Mycobacterium tuberculosis (strain H37Rv); assay: MABA minimum inhibitory concentration assay (aerobic/replicating); format: cell-based; conditions: M.tb H37Rv; for MIC90: Mycobacterium tuberculosis, aerobic/replicating, 90% inhibition of growth
[6] = human/mouse liver microsomes not distinguished, read-out: T½ values (microsomal stability)

Sequence of hERG (Q12809 whole entry): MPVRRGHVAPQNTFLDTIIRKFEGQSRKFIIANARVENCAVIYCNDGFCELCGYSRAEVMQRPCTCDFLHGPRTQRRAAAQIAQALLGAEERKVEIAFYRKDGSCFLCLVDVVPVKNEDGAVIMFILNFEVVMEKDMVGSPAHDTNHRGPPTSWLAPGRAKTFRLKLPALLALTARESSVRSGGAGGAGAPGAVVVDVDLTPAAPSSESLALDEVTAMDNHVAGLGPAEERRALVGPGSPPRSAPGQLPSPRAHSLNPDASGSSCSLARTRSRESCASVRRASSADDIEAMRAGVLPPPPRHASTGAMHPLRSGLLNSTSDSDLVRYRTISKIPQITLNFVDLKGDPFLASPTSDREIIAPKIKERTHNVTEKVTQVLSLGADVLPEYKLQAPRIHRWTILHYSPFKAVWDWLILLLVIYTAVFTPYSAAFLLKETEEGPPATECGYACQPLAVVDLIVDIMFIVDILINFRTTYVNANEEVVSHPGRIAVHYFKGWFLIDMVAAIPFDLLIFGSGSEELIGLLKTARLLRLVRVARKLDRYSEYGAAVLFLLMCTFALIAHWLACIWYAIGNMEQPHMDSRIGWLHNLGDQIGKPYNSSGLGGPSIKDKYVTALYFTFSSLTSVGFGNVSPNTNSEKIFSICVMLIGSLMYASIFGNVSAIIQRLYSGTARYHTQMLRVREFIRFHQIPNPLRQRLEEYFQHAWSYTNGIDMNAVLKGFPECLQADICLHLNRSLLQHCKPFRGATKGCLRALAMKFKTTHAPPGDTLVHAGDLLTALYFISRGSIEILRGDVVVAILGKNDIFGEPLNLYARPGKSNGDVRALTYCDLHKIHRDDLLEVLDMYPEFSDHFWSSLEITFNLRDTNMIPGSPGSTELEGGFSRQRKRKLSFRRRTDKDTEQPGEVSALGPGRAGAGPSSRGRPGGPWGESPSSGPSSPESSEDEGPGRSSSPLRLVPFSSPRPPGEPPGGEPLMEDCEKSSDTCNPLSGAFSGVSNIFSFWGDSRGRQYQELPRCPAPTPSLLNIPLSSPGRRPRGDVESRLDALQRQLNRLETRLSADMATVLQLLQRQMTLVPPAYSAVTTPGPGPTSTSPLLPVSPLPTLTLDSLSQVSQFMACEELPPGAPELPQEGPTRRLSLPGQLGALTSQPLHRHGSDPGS

| Compound | CLint scaled at 1 μM ([1]; human, microsomes) [mL/min/kg] | half-life at 1 μM ([1]; human, microsomes) [h] | microsomal CLint at 1 μM [1] [µL/min/mg] | IC50 [2] [µg/mL] | inhibition at 0.3 µM (hERG) [%] | inhibition at 1 µM (hERG) [%] | MIC90 LORA [3] [µg/mL] | CLint scaled at 1 μM [4] [mL/min/kg] | half-life at 1 μM [4] [h] | microsomal CLint at 1 μM [4] [µL/min/mg] | melting point [°C] | MIC90 [5] [µg/mL] | half-life at 1 μM [1, 6] [h] | anti-mycobacterial activity in words ([5]; MABA/LORA) |
| --- | --- | --- | --- | --- | --- | --- | --- | --- | --- | --- | --- | --- | --- | --- |
| Fc1ccc(-c2cnn3c(NCc4cc(N5CCCCC5)ccn4)cc(-c4ccccc4)nc23)cc1 [Compound 68, 3-(4-Fluorophenyl)-5-phenyl-N-((4-(piperidin-1-yl)pyridin-2-yl)methyl)pyrazolo[1,5-a]pyrimidin-7-amine] | 11 | 1.87 | 12 | > 32 | 19 | 36 | 0.85 (≈ 1.78 µM) | 92 | 1 | 23 | 189 to 191 | 0.96 (≈ 2.01 µM) | – | – |
| Fc1ccc(-c2cnn3c(NCc4ccccn4)cc(-c4cccs4)nc23)cc1 [Compound 41, 3-(4-Fluorophenyl)-N-(pyridin-2-ylmethyl)-5-(thiophen-2-yl)pyrazolo[1,5-a]pyrimidin-7-amine] | 75 | 0.283 | 83 | > 32 | 0 | 0 | 0.36 (≈ 0.897 µM) | 163 | 0.567 | 41 | – | 0.99 (≈ 2.47 µM) | < 1.42 | – |
| Fc1ccc(-c2cnn3c(NCc4ccccn4)cc(-c4cccnc4)nc23)cc1 [Compound 39, 3-(4-Fluorophenyl)-N-(pyridin-2-ylmethyl)-5-(pyridin-3-yl)pyrazolo[1,5-a]pyrimidin-7-amine] | 57 | 0.367 | 63 | > 32 | 16 | 46 | 0.30 (≈ 0.757 µM) | 445 | 0.2 | 112 | – | 2.3 (≈ 5.8 µM) | < 1.42 | – |
| COc1ccc(-c2cc(NCc3ccccn3)n3ncc(-c4ccc(F)cc4)c3n2)cc1 [Compound 34, 3-(4-Fluorophenyl)-5-(4-methoxyphenyl)-N-(pyridin-2-ylmethyl)pyrazolo[1,5-a]pyrimidin-7-amine] | 16 | 1.28 | 18 | > 32 | 0 | 1 | 0.25 (≈ 0.588 µM) | 88 | 1.05 | 22 | – | 1.5 (≈ 3.53 µM) | < 1.42 | – |
| CC(C)c1ccc(-c2cc(NCc3ccccn3)n3ncc(-c4ccc(F)cc4)c3n2)cc1 [Compound 35, 3-(4-Fluorophenyl)-5-(4-isopropylphenyl)-N-(pyridin-2-ylmethyl)pyrazolo[1,5-a]pyrimidin-7-amine] | < 8.6 | > 2.42 | < 9.6 | > 32 | 1 | 1 | 1.0 (≈ 2.29 µM) | < 38 | > 2.42 | < 9.6 | – | 1.8 (≈ 4.11 µM) | – | – |
| Fc1ccc(-c2cnn3c(NCc4ccccn4)cc(-c4ccccc4F)nc23)cc1 [Compound 28, 5-(2-Fluorophenyl)-3-(4-fluorophenyl)-N-(pyridin-2-ylmethyl)pyrazolo[1,5-a]pyrimidin-7-amine] | 18 | 1.15 | 20 | > 32 | 17 | 36 | 0.22 (≈ 0.532 µM) | 113 | 0.817 | 29 | – | 1.79 (≈ 4.33 µM) | < 1.42 | – |
| COc1ccc(-c2cnn3c(NCc4ccccn4)cc(-c4ccccc4)nc23)cc1 [Compound 20, 3-(4-Methoxyphenyl)-5-phenyl-N-(pyridin-2-ylmethyl)pyrazolo[1,5-a]pyrimidin-7-amine] | 20 | 1.03 | 22 | > 32 | 0 | 0 | 0.51 (≈ 1.25 µM) | 92 | 1 | 23 | 187 to 189 | 3.6 (≈ 8.83 µM) | < 1.42 | active |
| Fc1ccc(-c2cnn3c(NCc4ccccn4)cc(C4CC4)nc23)cc1 [Compound 25, 5-Cyclopropyl-3-(4-fluorophenyl)-N-(pyridin-2-ylmethyl)pyrazolo[1,5-a]pyrimidin-7-amine] | 68 | 0.3 | 76 | 23.4 (≈ 65.1 µM) | 8 | 19 | 0.20 (≈ 0.556 µM) | 424 | 0.217 | 107 | – | 1.54 (≈ 4.28 µM) | < 1.42 | – |
| Cc1cccc(-c2cc(NCc3ccccn3)n3ncc(-c4ccc(F)cc4)c3n2)c1 [Compound 30, 3-(4-Fluorophenyl)-N-(pyridin-2-ylmethyl)-5-(m-tolyl)pyrazolo[1,5-a]pyrimidin-7-amine] | < 8.6 | > 2.42 | < 9.6 | > 32 | 3 | 11 | 0.9 (≈ 2.2 µM) | < 38 | > 2.42 | < 9.6 | – | 1.6 (≈ 3.91 µM) | – | – |
| Fc1ccc(-c2cnn3c(NCc4ccccn4)cc(-c4ccc(OC(F)(F)F)cc4)nc23)cc1 [Compound 38, 3-(4-Fluorophenyl)-N-(pyridin-2-ylmethyl)-5-(4-(trifluoromethoxy)phenyl)pyrazolo[1,5-a]pyrimidin-7-amine] | 15 | 1.43 | 16 | > 32 | 2 | 2 | 1.1 (≈ 2.29 µM) | < 38 | > 2.42 | < 9.6 | – | 1.9 (≈ 3.96 µM) | < 1.42 | – |
| Fc1ccc(-c2cnn3c(NCc4ccccn4)cc(-c4ccsc4)nc23)cc1 [Compound 42, 3-(4-Fluorophenyl)-N-(pyridin-2-ylmethyl)-5-(thiophen-3-yl)pyrazolo[1,5-a]pyrimidin-7-amine] | 43 | 0.483 | 47 | > 32 | 9 | 24 | 0.22 (≈ 0.548 µM) | 298 | 0.3 | 75 | – | 1.4 (≈ 3.49 µM) | < 1.42 | – |
